Experiments:
clinical = test: clinical; parameters: species or system human; details: in vivo
Procedure: On days that PK samples are obtained, the patient should take BLZ945 during the clinic visit after the pre-dose PK samples and prior to post-dose PK samples, when instructed by the study staff. Patients should take BLZ945 on an empty stomach (i.e. fast from food and drink, except water) at least 1 hour before or 2 hours after a meal. Each dose should be taken with a glass of water. Patients should be instructed to swallow whole capsules and not to chew or open them.
The preliminary pharmacokinetics (PK) of single dose and multiple doses of oral BLZ945 when administered alone and in combination with spartalizumab has been assessed in the ongoing study CBLZ945X2101.

CSF-1R = test: Mouse CSF-1 levels in plasma as biomarker for CSF-1R inhibition (MC38 model); assay type: in vivo; details: BLZ945 4 days on/3 days off, vs vehicle
Procedure: In order to measure increase of CSF1 in the plasma as a biomarker for CSF-1R inhibition blood sampling was performed at baseline and 6 hours later on indicated days (FIG. 4).
Mouse CSF-1 levels in plasma. A. Changes in CSF-1 levels over time in the different treatment groups. B. Statistical analysis of CSF-1 levels in vehicle vs. BLZ945 4 days on/3 days off and in vehicle vs. BLZ945 4 days on/3 days off in combination with anti-PD-1. Statistical significance was calculated using a two-tailed, unpaired, non-parametric Mann-Whitney Test was performed to compare treatment to control groups.

[1] = tested on: tumor associated macrophages (TAM) and Tregs; test: Tumor infiltrating macrophages and Tregs by flow cytometry (MC38 model); assay type: in vivo, mouse; details: BLZ945 4 days on/3 days off, single agent and with anti-PD-1
Procedure: In order to access the dynamics of the tumor associated immune cells a repeat study using only the 4 days on/3 days off schedule as a single agent and in combination with anti-PD-1 was performed.
FIG. 5 Analysis of tumor infiltrating macrophages (FIG. 5A) and Tregs (FIG. 5B) upon treatment with BLZ945 in a 4 days on/3 days off schedule on day 10 (A) and day 14 (B) and in combination with anti-PD-1 by flow cytometry. Statistical significance was calculated using a two-tailed, unpaired, non-parametric Mann-Whitney Test was performed to compare treatment to control groups.

[2] = AST/ALT elevation across single agent dose groups (clinical data, CTCAE); assay type: in vivo, human
Procedure: A comparison of AST and ALT elevation across single agent dose groups for the compound of Formula (I) was performed for the once per week (Q1WV) dosing regimen and the 4 days on/10 days off dosing regimen over a range of dosages. FIGS. 6 and 7 show the AST and ALT elevations, respectively. The Common Terminology Criteria for Adverse Events (CTCAE) was used to evaluate AST and ALT levels.

microglia = test: Microglial depletion in SOD1G93A mice with b.i.d. dosing (RD-2019-00111); assay type: in vivo, SOD1G93A mouse; details: 5 consecutive days
Procedure: (§1) Dosing was examined in the SOD1G93A mouse model of ALS, the most commonly used rodent ALS model (RD-2019-00111). Twice daily dosing (b.i.d.) was examined after 5 consecutive dosing days. Microglia were depleted in the cortex by approximately 25% and 75% following treatment with 50 mg/kg and 80 mg/kg BLZ945. BLZ945 dosed b.i.d. at 10 mg/kg was not effective (FIG. 10 A).
(§2) FIG. 10: BLZ945-mediated microglial depletion in the cortex, as assessed by Iba1/Aif-1 immunohistological staining (A) or in spinal cord by qPCR analysis (B) Values are group means±SD (n=3). (C and D) Exposure of BLZ945 in blood and CNS brain and spinal cord 3 hours after the final dose of the study.

[3] = Blood, brain and spinal cord exposure in SOD1G93A mice, b.i.d. dosing (RD-2019-00111); assay type: in vivo; details: mouse, brain and spinal cord relative to blood, three hours after the final dose, read-out: brain and spinal cord drug exposure relative to blood
Procedure: as §1, §2

Soluble TREM2 = Soluble TREM2 in plasma and CSF, 13-wk cynomolgus monkey study (1779034); assay type: in vivo; details: for TREM2 plasma values: 7 days-on 7 days-off, mid- and high-doses; for decrease of soluble TREM2 in CSF: high dose
Procedure: In a preclinical 13-wk study (Study number 1779034), cynomolgus monkey were treated with 30, 60 and 200 mg/kg/day BLZ945 on daily oral dosing or at 60 and 200 mg/kg/day on 7 days-on and 7 days-off treatment cycles. With either regimen, the dosing period was for 91 days followed by a drug-free period up to a total of […]. Plasma was collected at pre-dose, during the dosing period at different time points and during the recovery time, and CSF was collected at necropsy at end of dosing and recovery periods. Soluble TREM2, a biomarker of microglial activation, was measured in plasma and CSF.

## CNC(=O)c1cc(Oc2ccc3nc(N[C@@H]4CCCC[C@H]4O)sc3c2)ccn1 [BLZ945, 4-((2-(((1R,2R)-2-hydroxycyclohexyl)amino)benzo[d]thiazol-6-yl)oxy)-N-methylpicolinamide]
clinical; human
  mean accumulation index (Racc): 1.07-1.24
clinical; human, po, 150 mg
  AUC(0-t): 102 µg·h/mL
  Cmax: 6950 ng/mL
clinical; human, po, 300 mg
  AUC(0-t): 203 µg·h/mL
  Cmax: 13900 ng/mL
clinical; human, po, 600 mg
  AUC(0-t): 378 µg·h/mL
  Cmax: 24500 ng/mL
clinical; human, po, 800 mg
  AUC(0-t): 413 µg·h/mL
  Cmax: 22700 ng/mL
clinical; human, po, 1200 mg
  AUC(0-t): 599 µg·h/mL
  Cmax: 32700 ng/mL
clinical; po
  absorption: rapid absorption
CSF-1R
  CSF-1 plasma levels: statistically significant increase
[1]; after 10 and 14 days of treatment
  TAM in tumor: significant decrease
[1]; day 10 after treatment start
  Tregs in tumor: transient decrease
[2]; 4 days on/10 days off compared with Q1W dosing regimen, single agent
  AST and ALT elevations: better controlled
[2]; 4 days on/10 days off schedule
  ALT/AST levels: recover to baseline before next dose
[2]; Q1W dose, even at lowest dose of 300 mg
  AST and ALT levels: spikes above the G2 level
microglia; 10 mg/kg b.i.d.
  microglia depletion in the cortex: not effective
  reduction of microglial markers in spinal cord (qPCR): small but non-significant effect
microglia; 50 mg/kg b.i.d.
  microglia depleted in spinal cord (qPCR of microglial markers): approximately 55%
  microglia depleted in the cortex: approximately 25%
microglia; 80 mg/kg b.i.d.
  microglia depleted in spinal cord (qPCR of microglial markers): ~85%
  microglia depleted in the cortex: ~75%
[3]
  Kp at 3 h: ~0.3
Soluble TREM2; end of off-treatment week
  TREM2 plasma values: in the range of control values at end of off-treatment week
Soluble TREM2; end of on-treatment weeks
  TREM2 plasma values: decreased at end of on-treatment weeks
Soluble TREM2; continuous dosing 3 months
  decrease of soluble TREM2 in CSF: about 25 fold
Soluble TREM2; continuous dosing regimen
  time for plasma TREM2 to return to baseline after cessation of dosing: ≤ 7 days
Soluble TREM2; high daily and high on/off treatment groups
  soluble TREM2 values at end of recovery phase: returned to that of untreated controls
Soluble TREM2; mid-continuous (60 mg/kg/day) and high continuous (200 mg/kg/day) daily oral dosing
  plasma TREM2, remaining: 40-45 % of the predose value
Soluble TREM2; on-off dosing 3 months
  decrease of soluble TREM2 in CSF: about 4.6 fold

— patent publication US20230172920A1, “DOSING REGIMEN FOR TREATING A DISEASE MODULATED BY CSF-1R” (Novartis AG, priority 2020, published 2023)
